In US7336989B2, “System and method for quantitative or qualitative measurement of exogenous substances in tissue and other materials using laser-induced fluorescence spectroscopy” (priority 2002, dated 2008):
Where “and” joins values, the source holds several entries; their conditions need not be identical. Equal entries are not always repeated.

Assay: Penetration depth of topically applied antibiotics into corneal tissue, by excimer laser ablation and laser-induced fluorescence spectroscopy with PLS model
Type: in vitro ADME
Settings: for Antibiotic Penetration Depth (Mean): rinsed, mean of cases (SD in text)
Procedure: The second set of experiments was performed on fresh rabbit corneas. All experiments were performed in compliance with the Association for Research in Vision and Ophthalmology (ARVO) Statement on the Use of Animals in Research. Approval was obtained from the University of California, Irvine, Institutional Care and Use Committee (IACUC) and the IACUC guidelines regarding animal experimentation were followed. New Zealand White rabbit heads were obtained from an abattoir and kept at 4° C. until eyes were enucleated within 7-hours of death to maximize preservation of the corneal epithelium. The globes were stored in a moist chamber at 4° C. for approximately 4 hours until time of use.
The main component, mounted on or above an optical table 21, is the Nidek EC-5000 laser system 22 (Model EC-5000, Nidek Technologies, Inc., Japan) operating at 193 nm. The average laser energy is about 16.4 mJ/pulse measured over a period of 10-s while pulsing at 4 Hz. The eye-fixation LED and the aiming He—Ne laser within the laser system 22 are disabled to avoid their interference with the measured corneal autofluorescence.
During the experiments, the laser 22 is operated to emit a collimated laser beam 23 in the direction of a cornea 24. The laser 22 is operated in its manual mode to pulse the beam 23 at 4 Hz and generate a rectangular spot size of about 2×4.5-mm. The BNC cable connecting the control circuitry of the EC-5000 to the OEM […] excimer laser (Lambda Physik, Fort Lauderdale, Fla.) is tapped using a BNC T-adapter. […]
Each pulse of radiation emitted from the laser 22 ablates a thin layer of the cornea 24. The laser-induced fluorescence (LIF) 32 produced by the ablated cornea 24 is reflected by a 2″ off-axis parabolic mirror 34 (Al, SiO-protected Model A8037-331, Janos Technology Inc., Townshend, Vt.) mounted on a mirror holder 36 that is, in turn, mounted on an XYZ translator 38. […] With each trigger pulse, the spectrograph 26 measures and auto-saves the fluorescence spectrum generated by the corresponding laser pulse.
The cornea 24 was placed epithelium-up (with the exception of the cornea in Example 4) on a circular aluminum tray 42. […] The laser 22 was set to ablate the cornea at 4-Hz for a period of about 7-minutes and the fluorescence spectrum generated by each pulse was measured and saved. […]
In each set of experiments, the measured fluorescence spectra are corrected for dark current and background light, and each spectrum is smoothed using a 5-point moving average window. The series of spectra measured from a given cornea are normalized by the peak value of the first spectrum in the series (i.e. the spectrum of the corneal surface). […]

SMILES: COc1c(N2CCNC(C)C2)c(F)cc2c(=O)c(C(=O)O)cn(C3CC3)c12 (stereo not shown) [Gatifloxacin, gatifloxacin]
- Penetration of the corneal epithelium (in words): penetrate the epithelium significantly more than ciprofloxacin

SMILES: O=C(O)c1cn(C2CC2)c2cc(N3CCNCC3)c(F)cc2c1=O [Ciprofloxacin, ciprofloxacin]
- Antibiotic Penetration Depth (individual cases) (enucleated rabbit globes, topical 4 drops for 10 min, then 3 drops for 5 min, rinsed with lactated Ringer's, single cornea per case): 0.6 μm and 1.5 μm and 0.9 μm
- Antibiotic Penetration Depth (Mean) (enucleated rabbit globes, topical 4 drops for 10 min, then 3 drops for 5 min): 1.0 μm
- Antibiotic Penetration Depth (Mean) (enucleated rabbit globes, topical 4 drops for 10 min, then 3 drops for 5 min, listed as ciprofloxacin): 1.0±0.5 μm
